Legend:
[1] = target: D(1A) dopamine receptor (Homo sapiens) (UniProt P21728); test: In vitro binding affinity against human Dopamine receptor D1 at a concentration of 100 (nM)
[2] = target: D(3) dopamine receptor (Homo sapiens) (UniProt P35462); test: In vitro binding affinity against human Dopamine receptor D3 at a concentration of 100 (nM)
[3] = target: T1, D(4) dopamine receptor (Homo sapiens) (UniProt P21917); test: In vitro binding affinity against human Dopamine receptor D4 at a concentration of 100 (nM)
T1 sequence (whole entry): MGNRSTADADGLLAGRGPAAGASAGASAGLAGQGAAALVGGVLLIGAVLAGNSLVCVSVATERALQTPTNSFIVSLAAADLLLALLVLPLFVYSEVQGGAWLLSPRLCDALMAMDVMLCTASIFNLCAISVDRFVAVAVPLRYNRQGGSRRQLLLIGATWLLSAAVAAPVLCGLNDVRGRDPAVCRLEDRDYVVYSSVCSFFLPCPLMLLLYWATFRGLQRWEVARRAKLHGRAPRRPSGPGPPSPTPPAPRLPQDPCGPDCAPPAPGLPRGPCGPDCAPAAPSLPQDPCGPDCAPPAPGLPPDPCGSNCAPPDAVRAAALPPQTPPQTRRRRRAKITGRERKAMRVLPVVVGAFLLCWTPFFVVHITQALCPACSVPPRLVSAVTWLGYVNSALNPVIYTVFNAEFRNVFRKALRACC

[4] = target: 5-hydroxytryptamine receptor 1B (Homo sapiens) (UniProt P28222); test: In vitro binding affinity against human 5-hydroxytryptamine 1B receptor at a concentration of 100 (nM)
[5] = target: 5-hydroxytryptamine receptor 2B (Homo sapiens) (UniProt P41595); test: In vitro binding affinity against human 5-HT2B receptor at a concentration of 100 (nM)
[6] = target: Muscarinic acetylcholine receptors; M1 & M2 (Homo sapiens) (UniProt P11229+P08172); test: In vitro binding affinity against human Muscarinic acetylcholine receptor M1- Muscarinic acetylcholine receptor M2 at a concentration of 100 (nM); type: protein assay
[7] = target: 5-hydroxytryptamine receptor 1D (Homo sapiens) (UniProt P28221); test: In vitro binding affinity against human 5-hydroxytryptamine 1D receptor at a concentration of 100 (nM)
[8] = target: T2, 5-hydroxytryptamine receptor 1F (Homo sapiens) (UniProt P30939); test: In vitro binding affinity against human 5-hydroxytryptamine 1F receptor at a concentration of 100 (nM)
T2 sequence (whole entry): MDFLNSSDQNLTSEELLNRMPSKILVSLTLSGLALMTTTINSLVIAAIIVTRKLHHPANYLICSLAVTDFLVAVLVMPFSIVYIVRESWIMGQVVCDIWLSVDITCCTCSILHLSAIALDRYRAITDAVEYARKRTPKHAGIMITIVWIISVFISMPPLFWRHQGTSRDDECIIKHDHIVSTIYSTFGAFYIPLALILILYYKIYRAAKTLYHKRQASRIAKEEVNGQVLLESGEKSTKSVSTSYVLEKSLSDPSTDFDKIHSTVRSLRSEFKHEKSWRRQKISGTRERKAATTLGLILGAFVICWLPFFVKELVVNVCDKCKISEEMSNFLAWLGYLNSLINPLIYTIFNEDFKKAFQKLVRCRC

[9] = target: 5-hydroxytryptamine receptor 2A (Homo sapiens) (UniProt P28223); test: In vitro binding affinity against human 5-hydroxytryptamine 2A receptor at a concentration of 100 (nM)
[10] = target: 5-hydroxytryptamine receptor 7 (Homo sapiens) (UniProt P34969); test: In vitro binding affinity against human 5-hydroxytryptamine 7 receptor at a concentration of 100 (nM)
[11] = target: D(2) dopamine receptor (Homo sapiens) (UniProt P14416); test: In vitro binding affinity against human Dopamine receptor D2 at a concentration of 100 (nM)
[12] = target: Adrenergic receptor alpha-1 (Homo sapiens) (UniProt P35348+P25100+P35368); test: In vitro binding affinity against human Alpha-1 adrenergic receptor at a concentration of 100 (nM); type: protein assay
[13] = target: D(1B) dopamine receptor (Homo sapiens) (UniProt P21918); test: In vitro binding affinity against human D5 receptor at a concentration of 100 (nM)
[14] = target: T3, 5-hydroxytryptamine receptor 2C (Homo sapiens) (UniProt P28335); test: In vitro binding affinity against human 5-hydroxytryptamine 2C receptor at a concentration of 100 (nM)
T3 sequence (whole entry): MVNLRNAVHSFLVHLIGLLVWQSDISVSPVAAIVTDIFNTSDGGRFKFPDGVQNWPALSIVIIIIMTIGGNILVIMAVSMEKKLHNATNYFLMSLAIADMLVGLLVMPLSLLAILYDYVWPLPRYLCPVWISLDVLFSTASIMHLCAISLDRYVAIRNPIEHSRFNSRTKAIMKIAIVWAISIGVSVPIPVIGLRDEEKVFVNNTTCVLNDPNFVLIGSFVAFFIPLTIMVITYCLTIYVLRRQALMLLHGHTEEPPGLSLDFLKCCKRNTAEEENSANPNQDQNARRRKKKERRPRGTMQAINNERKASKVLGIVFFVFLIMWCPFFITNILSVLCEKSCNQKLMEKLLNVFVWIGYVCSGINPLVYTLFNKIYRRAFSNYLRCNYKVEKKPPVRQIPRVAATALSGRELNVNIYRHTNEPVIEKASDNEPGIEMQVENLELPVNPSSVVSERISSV

[15] = target: T4, 5-hydroxytryptamine receptor 1A (Homo sapiens) (UniProt P08908); test: In vitro binding affinity against human 5-hydroxytryptamine 1A receptor at a concentration of 100 (nM)
T4 sequence (whole entry): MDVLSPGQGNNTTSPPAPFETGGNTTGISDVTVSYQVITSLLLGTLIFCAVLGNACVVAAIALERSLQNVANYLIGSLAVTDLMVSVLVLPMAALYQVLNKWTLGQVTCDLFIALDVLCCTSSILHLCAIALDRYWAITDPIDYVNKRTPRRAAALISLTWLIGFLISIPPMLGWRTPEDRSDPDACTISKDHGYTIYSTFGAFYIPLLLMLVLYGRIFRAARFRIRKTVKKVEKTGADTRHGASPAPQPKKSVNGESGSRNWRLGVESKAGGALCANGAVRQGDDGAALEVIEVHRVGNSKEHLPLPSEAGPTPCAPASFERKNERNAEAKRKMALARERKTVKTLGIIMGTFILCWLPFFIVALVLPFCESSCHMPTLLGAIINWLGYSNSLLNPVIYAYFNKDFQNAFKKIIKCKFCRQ

[16] = target: 5-hydroxytryptamine receptor 6 (Homo sapiens, UniProt P50406); test: Displacement of [3H]LSD from human 5-hydroxytryptamine 6 receptor expressed in HEK 293 cells; type: cell-based, HEK293
Chain of 5-hydroxytryptamine receptor 6 (P50406 whole entry): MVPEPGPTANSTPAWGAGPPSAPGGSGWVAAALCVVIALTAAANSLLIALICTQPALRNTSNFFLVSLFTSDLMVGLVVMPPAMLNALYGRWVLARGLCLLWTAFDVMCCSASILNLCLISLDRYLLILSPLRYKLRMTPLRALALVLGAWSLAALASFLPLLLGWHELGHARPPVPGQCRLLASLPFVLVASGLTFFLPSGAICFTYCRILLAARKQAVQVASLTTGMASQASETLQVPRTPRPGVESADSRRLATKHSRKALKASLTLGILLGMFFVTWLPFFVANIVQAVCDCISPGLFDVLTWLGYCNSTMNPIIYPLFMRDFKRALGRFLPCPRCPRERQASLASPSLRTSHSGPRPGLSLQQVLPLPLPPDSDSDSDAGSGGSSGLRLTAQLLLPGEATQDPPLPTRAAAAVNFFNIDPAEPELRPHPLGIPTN

Chain of D(3) dopamine receptor (Homo sapiens) (P35462 whole entry): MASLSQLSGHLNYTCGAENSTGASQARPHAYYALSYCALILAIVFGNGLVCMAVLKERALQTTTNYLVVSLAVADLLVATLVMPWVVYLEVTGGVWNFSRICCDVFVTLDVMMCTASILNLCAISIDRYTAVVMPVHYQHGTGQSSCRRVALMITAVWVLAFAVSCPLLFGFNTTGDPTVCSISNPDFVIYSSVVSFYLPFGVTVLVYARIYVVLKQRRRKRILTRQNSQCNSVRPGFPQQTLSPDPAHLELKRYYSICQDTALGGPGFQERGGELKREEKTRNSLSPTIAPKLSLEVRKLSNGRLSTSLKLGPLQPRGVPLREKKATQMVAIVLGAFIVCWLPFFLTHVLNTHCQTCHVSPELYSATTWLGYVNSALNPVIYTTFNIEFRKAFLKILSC
Chain of D(1B) dopamine receptor (Homo sapiens) (P21918 whole entry): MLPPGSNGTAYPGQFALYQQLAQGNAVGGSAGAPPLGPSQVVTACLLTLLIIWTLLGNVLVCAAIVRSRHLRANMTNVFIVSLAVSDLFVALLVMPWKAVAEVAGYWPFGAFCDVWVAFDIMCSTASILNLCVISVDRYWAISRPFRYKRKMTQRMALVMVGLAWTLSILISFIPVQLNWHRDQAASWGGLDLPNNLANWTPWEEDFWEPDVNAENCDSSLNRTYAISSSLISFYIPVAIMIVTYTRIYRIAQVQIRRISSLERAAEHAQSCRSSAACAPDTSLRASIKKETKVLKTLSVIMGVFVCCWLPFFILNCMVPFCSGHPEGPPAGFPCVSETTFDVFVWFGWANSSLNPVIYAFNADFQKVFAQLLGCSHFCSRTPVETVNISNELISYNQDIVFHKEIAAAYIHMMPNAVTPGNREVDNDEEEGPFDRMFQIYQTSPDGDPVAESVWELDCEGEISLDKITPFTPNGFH
Chain of D(1A) dopamine receptor (Homo sapiens) (P21728 whole entry): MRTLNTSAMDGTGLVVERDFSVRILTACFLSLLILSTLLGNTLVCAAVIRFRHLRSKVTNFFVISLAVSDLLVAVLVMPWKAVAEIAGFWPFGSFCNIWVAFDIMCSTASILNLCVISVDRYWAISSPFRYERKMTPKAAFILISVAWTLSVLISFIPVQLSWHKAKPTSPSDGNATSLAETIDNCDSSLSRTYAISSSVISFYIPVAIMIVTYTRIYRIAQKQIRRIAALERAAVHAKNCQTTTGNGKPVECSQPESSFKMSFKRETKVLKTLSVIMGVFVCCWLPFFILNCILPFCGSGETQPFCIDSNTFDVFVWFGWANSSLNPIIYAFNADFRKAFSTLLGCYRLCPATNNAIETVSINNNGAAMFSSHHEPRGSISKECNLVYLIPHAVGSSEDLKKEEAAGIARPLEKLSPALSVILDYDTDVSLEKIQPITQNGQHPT
Chain of 5-hydroxytryptamine receptor 1B (Homo sapiens) (P28222 whole entry): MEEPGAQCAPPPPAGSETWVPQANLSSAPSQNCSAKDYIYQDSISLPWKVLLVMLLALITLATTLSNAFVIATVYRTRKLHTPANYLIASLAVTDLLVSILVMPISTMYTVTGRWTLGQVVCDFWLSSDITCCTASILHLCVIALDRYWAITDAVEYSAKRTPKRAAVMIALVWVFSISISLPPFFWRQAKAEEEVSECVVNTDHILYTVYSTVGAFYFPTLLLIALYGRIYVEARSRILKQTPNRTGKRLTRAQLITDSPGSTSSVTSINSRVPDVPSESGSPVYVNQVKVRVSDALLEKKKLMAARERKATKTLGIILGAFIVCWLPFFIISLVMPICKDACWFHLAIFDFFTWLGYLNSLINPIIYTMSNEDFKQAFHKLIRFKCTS
Chain of 5-hydroxytryptamine receptor 2A (Homo sapiens) (P28223 whole entry): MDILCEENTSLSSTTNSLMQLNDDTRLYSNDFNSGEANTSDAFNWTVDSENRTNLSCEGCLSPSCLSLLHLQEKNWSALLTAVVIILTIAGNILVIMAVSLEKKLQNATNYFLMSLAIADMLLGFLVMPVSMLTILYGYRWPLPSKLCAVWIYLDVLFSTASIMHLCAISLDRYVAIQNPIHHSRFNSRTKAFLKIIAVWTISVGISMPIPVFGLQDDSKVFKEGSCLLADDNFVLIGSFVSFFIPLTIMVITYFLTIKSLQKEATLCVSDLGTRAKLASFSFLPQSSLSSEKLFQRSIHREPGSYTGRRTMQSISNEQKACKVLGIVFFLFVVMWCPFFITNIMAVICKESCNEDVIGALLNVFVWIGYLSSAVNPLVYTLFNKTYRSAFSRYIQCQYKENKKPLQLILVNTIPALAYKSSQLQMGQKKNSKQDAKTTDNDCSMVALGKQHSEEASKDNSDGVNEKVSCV
Chain of D(2) dopamine receptor (Homo sapiens) (P14416 whole entry): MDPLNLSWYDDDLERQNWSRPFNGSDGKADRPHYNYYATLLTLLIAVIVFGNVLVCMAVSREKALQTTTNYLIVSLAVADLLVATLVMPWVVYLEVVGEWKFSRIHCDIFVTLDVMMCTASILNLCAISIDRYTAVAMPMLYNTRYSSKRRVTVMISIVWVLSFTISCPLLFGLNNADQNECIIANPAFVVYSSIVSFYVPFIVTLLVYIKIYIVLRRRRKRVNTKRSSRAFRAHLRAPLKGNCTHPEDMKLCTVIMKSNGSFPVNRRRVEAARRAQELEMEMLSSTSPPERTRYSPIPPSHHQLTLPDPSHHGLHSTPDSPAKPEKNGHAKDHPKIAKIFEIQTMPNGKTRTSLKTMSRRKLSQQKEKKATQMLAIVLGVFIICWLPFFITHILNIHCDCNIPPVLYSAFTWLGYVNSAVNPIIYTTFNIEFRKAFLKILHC
Chain of 5-hydroxytryptamine receptor 7 (Homo sapiens) (P34969 whole entry): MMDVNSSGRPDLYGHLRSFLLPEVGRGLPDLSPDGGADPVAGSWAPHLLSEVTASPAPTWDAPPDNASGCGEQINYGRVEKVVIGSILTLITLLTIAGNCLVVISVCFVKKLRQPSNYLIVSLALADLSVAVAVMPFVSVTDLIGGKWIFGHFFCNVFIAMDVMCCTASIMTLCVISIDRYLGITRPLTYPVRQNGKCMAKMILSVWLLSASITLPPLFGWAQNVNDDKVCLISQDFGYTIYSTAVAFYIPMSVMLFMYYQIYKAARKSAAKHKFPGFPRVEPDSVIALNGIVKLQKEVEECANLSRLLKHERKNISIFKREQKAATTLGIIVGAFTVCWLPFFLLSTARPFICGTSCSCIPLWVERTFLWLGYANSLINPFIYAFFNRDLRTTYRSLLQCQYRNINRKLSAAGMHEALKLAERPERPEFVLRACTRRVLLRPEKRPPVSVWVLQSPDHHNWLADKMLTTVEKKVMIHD
Chain of 5-hydroxytryptamine receptor 2B (Homo sapiens) (P41595 whole entry): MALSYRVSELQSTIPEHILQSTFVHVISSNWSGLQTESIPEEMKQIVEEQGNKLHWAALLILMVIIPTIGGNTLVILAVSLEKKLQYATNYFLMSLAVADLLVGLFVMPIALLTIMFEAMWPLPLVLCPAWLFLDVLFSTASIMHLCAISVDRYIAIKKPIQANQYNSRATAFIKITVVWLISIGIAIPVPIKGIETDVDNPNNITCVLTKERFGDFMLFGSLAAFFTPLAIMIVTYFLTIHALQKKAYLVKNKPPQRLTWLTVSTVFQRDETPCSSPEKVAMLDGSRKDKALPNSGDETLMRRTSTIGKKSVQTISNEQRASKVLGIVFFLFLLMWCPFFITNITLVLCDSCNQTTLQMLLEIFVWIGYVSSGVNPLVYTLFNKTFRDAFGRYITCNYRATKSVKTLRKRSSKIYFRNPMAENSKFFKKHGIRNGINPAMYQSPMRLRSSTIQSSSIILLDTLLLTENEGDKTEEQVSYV
Chain of 5-hydroxytryptamine receptor 1D (Homo sapiens) (P28221 whole entry): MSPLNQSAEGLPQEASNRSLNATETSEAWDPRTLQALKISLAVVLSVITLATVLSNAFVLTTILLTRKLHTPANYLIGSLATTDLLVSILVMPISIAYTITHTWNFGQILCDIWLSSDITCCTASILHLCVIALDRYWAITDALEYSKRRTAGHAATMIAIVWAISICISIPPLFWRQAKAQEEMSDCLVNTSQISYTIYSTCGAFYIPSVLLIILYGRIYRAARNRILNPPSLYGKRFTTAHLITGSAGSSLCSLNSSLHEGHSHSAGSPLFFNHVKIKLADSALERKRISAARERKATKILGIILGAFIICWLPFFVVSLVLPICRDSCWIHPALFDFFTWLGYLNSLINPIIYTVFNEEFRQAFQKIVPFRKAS

## O=S(=O)(c1cccc2ccccc12)n1ccc2ccc(N3CCN4CCCC4C3)cc21 (centres undefined)
[1]
  inhibition: 1%
[2]
  inhibition: 22%
[3]
  inhibition: 0%
[4]
  inhibition: 2%
[5]
  inhibition: 36%
[6]
  inhibition: 0%
[7]
  inhibition: 5%
[8]
  inhibition: 9%
[9]
  inhibition: 32%
[10]
  inhibition: 8%
[11]
  inhibition: 7%
[12]
  inhibition: 0%
[13]
  inhibition: 0%
[14]
  inhibition: 17%
[15]
  inhibition: 79%

## O=S(=O)(c1cccc2ccccc12)n1ccc2ccc(C3=CCN4CCCC4C3)cc21 (centres undefined)
[16]
  Ki: 1.3 nM

## Cc1ccc(S(=O)(=O)n2ccc3ccc(N4CCN5CCCC5C4)cc32)cc1 (centres undefined)
[16]
  Ki: 3.3 nM

## O=S(=O)(c1ccccc1)n1ccc2ccc(N3CCN4CCCCC4C3)cc21 (centres undefined)
[16]
  Ki: 5.7 nM

## O=S(=O)(c1cccc2ccccc12)n1ccc2ccc(C3(O)CCN4CCCC4C3)cc21 (centres undefined)
[16]
  Ki: 4.7 nM

## O=S(=O)(c1cccc2ccccc12)n1ccc2ccc(C3CCN4CCCC4C3)cc21 (single isomer, unassigned; less polar)
[16]
  Ki: 0.6 nM

## O=S(=O)(c1ccc(F)cc1F)n1ccc2ccc(N3CCN4CCCCC4C3)cc21 (centres undefined)
[16]
  Ki: 3.6 nM

## Cc1ccc(S(=O)(=O)n2ccc3ccc(N4CCN5CCCCC5C4)cc32)cc1 (centres undefined)
[16]
  Ki: 4.9 nM

## O=S(=O)(c1cccc2ccccc12)n1ccc2ccc(N3CCN4CCCCC4C3)cc21 (centres undefined)
[16]
  Ki: 1.7 nM

## O=S(=O)(c1ccc2ccccc2c1)n1ccc2ccc(N3CCN4CCCCC4C3)cc21 (centres undefined)
[16]
  Ki: 3 nM

— ChEMBL document CHEMBL1133256, “6-Bicyclopiperazinyl-1-arylsulfonylindoles and 6-bicyclopiperidinyl-1-arylsulfonylindoles derivatives as novel, potent, and selective 5-HT6 receptor antagonists” (Bioorg Med Chem Lett, 2000)
